{"source": "patent US20250195556A1", "about": "“COMPOSITIONS, KITS, AND METHODS TO INDUCE ACQUIRED CYTORESISTANCE USING STRESS PROTEIN INDUCERS” (FRED HUTCHINSON CANCER RESEARCH CENTER, priority 2014, published 2025)", "key": {"[1]": {"details": "Berglund et al. Hepatology 1988; cited from earlier work"}, "Male CD-1 mice": {"system": "Male CD-1 mice", "assay": "Maleate model of AKI (FeS, SnPP, FeS+SnPP)", "type": "in vivo", "details": "1 mg FeS or 1 μmole SnPP IV alone 18 hrs before maleate", "text": "Methods. Male CD-1 mice (25-40 grams) Charles River, Wilmington, MA) were used for all experiments. They were housed under standard vivarium conditions with free food and water access. All experiments were approved by the Fred Hutchinson Cancer Research Center IACUC in accordance with NIH guidelines.\nEffects of Fe sucrose (FeS)/tin protoporphyrin (SnPP) on AKI severity. Maleate model of AKI. When injected into rodents, maleate undergoes relatively selective proximal tubule cell uptake via organic anion transporters. Once intracellular accumulation occurs, maleate is a preferred substrate for succinyl-CoA: 3-oxoacid CoA transferase. […] Ample levels of CoA are essential for fatty acid “activation”, allowing for their subsequent metabolism through the Krebs cycle, yielding ATP. In the absence of this process, proximal tubule ATP depletion and cell injury result. Additionally, maleate conjugates the sulfhydryl group of glutathione (GSH), culminating in GSH depletion and potential oxidant tubular stress.\nThe following experiment tested whether FeS, SnPP or combined FeS+SnPP can mitigate this form of acute kidney injury (AKI). […] The severity of kidney injury was assessed by determining plasma blood urea nitrogen (BUN) and plasma creatinine (PCr) concentrations."}, "IL-10": {"system": "IL-10", "assay": "Liver IL-10 mRNA and protein after IV N-Mgb, SnPP or both", "type": "in vivo, mice", "details": "for Liver mRNA: IL-10: control 0.06; for Liver protein: IL-10: control 314", "experimental": "(§1) Thirty-two mice were divided into 4 equal groups: (1) control mice; (2) mice treated with 1 mg of N-Mgb injection (as a bolus through the tail vein); (3) mice treated with […] of SnPP (via tail vein); and (4) mice treated with combined N-Mgb 1 SnPP. After either 4 hours (n=16) or 18 hours (n=16), the mice were deeply anesthetized with pentobarbital (50 mg/kg), the abdomen was opened through a midline abdominal incision, and the kidneys were removed. To determine potential effects on extrarenal organs, a liver lobe and the heart were also removed. The tissues were iced and then extracted for protein and RNA (RNeasy Plus Mini; Qiagen, Valencia, California) and subjected to enzyme linked immunosorbent assay (ELISA) and reverse transcriptase polymerase chain reaction (RT-PCR) for HO-1, haptoglobin, and IL-10 protein and messenger RNAs (mRNAs). Zager et al. J Am Soc Nephrol 2014; 25:998-1012; Zager et al. Am J Physiol 2012; 303: F139-48. As an assessment of renal function, control mice and the 18 hour after N-Mgb+SnPP-treated mice had blood urea nitrogen (BUN) and plasma creatinine levels measured. Additionally, transverse 10% formalin fixed kidney sections ([…]) were cut and stained with hematoxylin and eosin (H&E) and periodic acid Schiff (PAS) to further assess potential injury."}, "[2]": {"assay": "Plasma LDH 4 hr after IV test agents (marker of liver, kidney, lung and heart injury)", "type": "in vivo, mice", "details": "4 hr IV"}, "[3]": {"system": "cultured proximal tubule (HK-2) cells", "details": "Zager & Burkhart, Kidney Int 1997; cited from earlier work"}, "HO-1 [4]": {"system": "HO-1", "assay": "Renal cortical HO-1 mRNA and protein after IV N-Mgb, SnPP or both", "type": "in vivo, mice", "text": "Cytoresistance-inducing reagents. […] (#Mb0360; Sigma) was used as the primary cytoresistance-inducing agent. However, because myoglobin (Mgb) has an inherent nephrotoxic potential (particularly under conditions of volume depletion and aciduria), two approaches were used to mitigate Mgb's potential adverse effects. First, the Mgb was converted into a nitrited form by the addition of equimolar amount of sodium (Na) nitrite. In this regard, nitrite is an ambidentate molecule that directly binds 1:1 to myoglobin Fe either via its oxygen or nitrogen component. Cotton et al. Advanced inorganic chemistry. Hobocken, NJ: Wiley-Interscience, 1999:1355; Silaghi-Dumitrescu et al. Nitric Oxide 2014; 42 C: 32-9. […] Rassaf et al. Circ Res 2014; 114:1601-10; Totzeck et al. Circulation 2012; 126:325-34 [J Clin Invest 1992; 89:989-95]; Totzeck et al. PLOS One 2014; 22: e105951; Hendgen-Cotta et al. Proc Natl Acad Sci USA 2008; 105:10256-61.\nas §1"}, "haptoglobin": {"system": "haptoglobin", "assay": "Liver haptoglobin mRNA and protein after IV N-Mgb, SnPP or both", "type": "in vivo, mice", "set-up": "Liver protein: Haptoglobin: unit not given beside the values", "details": "for Liver mRNA: Haptoglobin: control 0.5; for Liver protein: Haptoglobin: control 115.3", "experimental": "as §1"}, "HO-1 [5]": {"system": "HO-1", "assay": "Liver HO-1 mRNA and protein after IV N-Mgb, SnPP or both", "type": "in vivo, mice", "details": "for Liver mRNA: HO-1: control 1.1; for Liver protein: HO-1 protein: control 10.2", "experimental": "as §1"}, "HO-1 [6]": {"system": "HO-1", "assay": "Cardiac HO-1 mRNA and protein after IV N-Mgb, SnPP or both", "type": "in vivo, mice", "details": "for Cardiac mRNA: HO-1: control 0.07", "experimental": "as §1"}}, "note": "Several values for one entry are separate records, joined by “and”; a condition that tells them apart may be missing. Identical values can stand only once.", "data": [{"smiles": "C=Cc1c2[n-]c(c1C)/C=c1\\[n-]/c(c(C)c1C=C)=C\\c1[n-]c(c(CCC(=O)O)c1C)/C=c1\\[n-]c(c(C)c1CCC(=O)O)=C2.[Sn+4]", "note": "[SnPP, tin protoporphyrin, reference compound]", "values": [{"measurement": "half-life", "setting": "[1]", "result": "2 to 4", "unit": "h"}, {"measurement": "Severity of maleate-induced renal injury (BUN, PCr)", "setting": "Male CD-1 mice", "result": "Neither SnPP alone nor FeS alone significantly altered"}, {"measurement": "Liver mRNA: IL-10", "setting": "IL-10; 4 h after Rx", "result": "0.14 ± 0.1"}, {"measurement": "Liver protein: IL-10", "setting": "IL-10; 4 h after Rx", "result": "485 ± 47"}, {"measurement": "Liver mRNA: IL-10", "setting": "IL-10; 18 h after Rx", "result": "0.05 ± 0.01"}, {"measurement": "Liver protein: IL-10", "setting": "IL-10; 18 h after Rx", "result": "8198 ± 725"}, {"measurement": "Plasma LDH, Average", "setting": "[2]; carrier 4.43", "result": 4.51, "unit": "Absorbance U LDH/ml"}, {"measurement": "Plasma LDH", "setting": "[2]; individual subjects", "result": "5.00 Absorbance U LDH/ml and 3.23 Absorbance U LDH/ml and 4.54 Absorbance U LDH/ml and 5.29 Absorbance U LDH/ml"}, {"measurement": "Reduction of Mgb toxicity by SnPP addition", "setting": "[3]", "result": "≤ 85", "unit": "%"}, {"measurement": "Kidney mRNA: HO-1", "setting": "HO-1 [4]; 4 h after Rx, control 0.61", "result": "4.38 ± 0.28"}, {"measurement": "Kidney HO-1 protein", "setting": "HO-1 [4]; 4 h after Rx, control 13.3", "result": "22.9 ± 2.6"}, {"measurement": "Kidney mRNA cortex: HO-1", "setting": "HO-1 [4]; 18 h after Rx, control 0.61", "result": "0.63 ± 0.06"}, {"measurement": "Kidney protein: HO-1", "setting": "HO-1 [4]; 18 h after Rx, control 13.3", "result": "18 ± 2"}, {"measurement": "Liver mRNA: Haptoglobin", "setting": "haptoglobin; 4 h after Rx", "result": "0.32 ± 0.02"}, {"measurement": "Liver protein: Haptoglobin", "setting": "haptoglobin; 4 h after Rx", "result": "130.0 ± 8.9"}, {"measurement": "Liver mRNA: Haptoglobin", "setting": "haptoglobin; 18 h after Rx", "result": "0.65 ± 0.17"}, {"measurement": "Liver protein: Haptoglobin", "setting": "haptoglobin; 18 h after Rx", "result": "212.0 ± 63.6"}, {"measurement": "Liver mRNA: HO-1", "setting": "HO-1 [5]; 4 h after Rx", "result": "3.15 ± 0.25"}, {"measurement": "Liver protein: HO-1 protein", "setting": "HO-1 [5]; 4 h after Rx", "result": "7.4 ± 0.7"}, {"measurement": "Liver mRNA: HO-1", "setting": "HO-1 [5]; 18 h after Rx", "result": "2.56 ± 0.21"}, {"measurement": "Liver protein: HO-1 protein", "setting": "HO-1 [5]; 18 h after Rx", "result": "18 ± 2.5"}, {"measurement": "Cardiac mRNA: HO-1", "setting": "HO-1 [6]; 4 h after Rx", "result": "0.14 ± 0.01"}, {"measurement": "Cardiac mRNA: HO-1", "setting": "HO-1 [6]; 18 h after Rx", "result": "0.09 ± 0.03"}, {"measurement": "Cardiac protein: HO-1", "setting": "HO-1 [6]; 18 h after Rx, control 1.5", "result": "2.67 ± 0.4"}]}]}
